Assay results taken from US5849691A, “Peptidomimetic inhibitors of cathepsin D and plasmepsins I and II” (The United States of America as represented by the …, priority 1996, dated 1998).
Numbered stars: 1 amine (or outer) side, 2 acyl side, 3 side chain; on linkers, the order of the positions; unused ones are H or OH. Bridge positions count the residues as written; N and C are the ends. Square brackets hold non-standard residues; d marks the D form. Peptide text beside a SMILES is read from it. * marks the point of attachment. Ahppa(3S,4S) = O=C(C[C@H](O)[C@H](Cc1ccccc1)N[*:1])[*:2]; Butanoyl(3,3-Me2) = CC(C)(C)CC(=O)*; Isopropoxycarbonyl = CC(C)OC(=O)*; CH2CH2 = C(C[*:2])[*:1]

Target: cathepsin D (Homo sapiens, UniProt P07339)
Assay: cathepsin D inhibition assay with fluorogenic substrate (tight-binding kinetics)
Assay type: biochemical
Settings: not given
Method: (§1) Typically, 485 μl of 50 mM Gly-HC1 buffer, pH 3.5 (in the case of cathepsin D), or 100 mM sodium acetate buffer, pH 5.0 (in the case of plasmepsin 2), was mixed with 5 μl of DMSO and 5 μl of titrated protease (final concentration 0.2-10 nM) and incubated 3 min at 37° C. The reaction was initiated by the addition of 5 μl of substrate stock solution in DMSO. Increase in fluorescence intensity at the emission maximum of 487 nm (excitation wavelength was 349 nm) was monitored as a function of time using an Aminco Bowman-2 luminescence spectrometer (SLM Instruments, Inc.).
(§2) The initial rate of hydrolysis was calculated by a second degree polynomial fit using SLM AB2 2.0 operating software. Kinetic parameters were determined by nonlinear regression fitting of initial rate versus substrate concentration data to the Michaelis-Menten equation using the program Enzfitter version 1.05 (Leatherbarrow, R. J. 1987. Enzfitter, a program for non-linear regression analysis. Elsevier Scientific, New York).
For inhibition studies inhibitors were prepared as stock solutions at different concentrations in DMSO. In a typical experiment 485 μl of the appropriate buffer was mixed with 5 μl of inhibitor stock solution and 5 μ of titrated protease (final concentration 0.2-10 nM) and preincubated 3 min at 37° C. The reaction was initiated by the addition of 5 μl of substrate stock solution in DMSO. For data analysis the mathematical model for tight-binding inhibitors (Williams, J. W., and Morrison, J. F. Methods Enzymol. 63:437 (1979)) was used. The data were fitted by nonlinear regression analysis to the equation
V=V0 /2Et ({[K1 (1+S/Km)+It -Et ]^2
+4Ki (1+S/Km)Et }^1/2 -[Ki (1+S/Km)+It

Chain of cathepsin D (P07339 65-412): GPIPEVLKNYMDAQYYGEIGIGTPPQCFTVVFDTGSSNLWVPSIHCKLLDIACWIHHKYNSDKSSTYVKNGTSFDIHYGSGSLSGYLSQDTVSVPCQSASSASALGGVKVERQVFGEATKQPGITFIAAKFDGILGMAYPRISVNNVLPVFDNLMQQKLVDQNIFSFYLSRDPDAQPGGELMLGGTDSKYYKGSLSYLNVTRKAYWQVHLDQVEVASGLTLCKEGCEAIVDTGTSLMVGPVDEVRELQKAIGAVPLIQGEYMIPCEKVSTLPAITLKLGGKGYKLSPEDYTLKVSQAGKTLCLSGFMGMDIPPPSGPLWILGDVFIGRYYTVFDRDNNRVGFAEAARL

**Q.** For `CC(C)C[C@H](NC(=O)[C@H](C)NC(=O)C[C@H](O)[C@H](Cc1ccccc1)NC(=O)[C@@H](NC(=O)OC(C)C)C(C)C)C(N)=O`, which IC50 is on record?
**A.** The IC50 was 20 nM.

**Q.** With `CC(C)C[C@H](NC(=O)[C@H](C)NC(=O)C[C@H](O)[C@H](Cc1ccccc1)NC(=O)[C@@H](NC(=O)[C@@H](NC(=O)OC(C)C)C(C)C)C(C)C)C(N)=O` (Isopropoxycarbonyl-VV[Ahppa(3S,4S)]AL-NH2) as the compound, how does the Ki read?
**A.** The Ki was 0.24 nM.

**Q.** Which Ki does the source give for `CC(C)[C@@H]1NC(=O)C[C@H](O)[C@H](Cc2ccccc2)NC(=O)[C@@H](NC(=O)[C@@H](NC(=O)CC(C)(C)C)C(C)C)CSCCSC[C@@H](C(=O)NCC(N)=O)NC1=O` ({Butanoyl(3,3-Me2)}-VC[Ahppa(3S,4S)]VCG-NH2; linker 2-5 via CH2CH2) here?
**A.** Its Ki is 1.9 nM.

**Q.** With `CC(C)[C@@H]1NC(=O)C[C@H](O)[C@H](Cc2ccccc2)NC(=O)[C@@H](NC(=O)[C@@H](NC(=O)CC(C)(C)C)C(C)C)CSCCCCSC[C@@H](C(=O)NCC(N)=O)NC1=O` as the compound, how does the Ki read?
**A.** The Ki was 0.1 nM.

**Q.** Which Ki does the source give for `CC(C)[C@@H]1NC(=O)C[C@H](O)[C@H](Cc2ccccc2)NC(=O)[C@@H](NC(=O)[C@@H](NC(=O)CC(C)(C)C)C(C)C)CCC(=O)NCCCC[C@@H](C(=O)NCC(N)=O)NC1=O` ({Butanoyl(3,3-Me2)}-VE[Ahppa(3S,4S)]VKG-NH2; lactam 2-5) here?
**A.** The Ki was 2.3 nM.

**Q.** Which Ki does the source give for `CC(C)[C@@H]1NC(=O)C[C@H](O)[C@H](Cc2ccccc2)NC(=O)[C@@H](NC(=O)[C@@H](NC(=O)CC(C)(C)C)C(C)C)CSCCCSC[C@@H](C(=O)NCC(N)=O)NC1=O` here?
**A.** The Ki was 1.5 nM.

**Q.** `CC(C)C[C@H](NC(=O)[C@H](C)NC(=O)C[C@H](O)[C@H](Cc1ccccc1)NC(=O)[C@@H](NC(=O)CN(C)C)C(C)C)C(N)=O` was tested. Which IC50 did it give?
**A.** The IC50 was 1000 nM.

**Q.** How did the Ki turn out when `CCCCCNC(=O)[C@@H](NC(=O)C[C@H](O)[C@H](Cc1ccccc1)NC(=O)CCCC)C(C)C` was run?
**A.** The Ki was 400 nM.

**Q.** With `CC(C)C[C@H](NC(=O)[C@@H](NC(=O)C[C@H](O)[C@@H]1CCCCNC(=O)CC[C@H](NC(=O)CC(C)(C)C)C(=O)N[C@@H](C(C)C)C(=O)N1)C(C)C)C(=O)NCC(N)=O` [drawing 29] as the compound, how does the Ki read?
**A.** The Ki was 0.26 nM.

**Q.** Which Ki does the source give for `CC(C)C[C@H](NC(=O)[C@@H](NC(=O)C[C@H](O)[C@@H]1CCCCNC(=O)C[C@H](NC(=O)CC(C)(C)C)C(=O)N[C@@H](C(C)C)C(=O)N1)C(C)C)C(=O)NCC(N)=O` here?
**A.** The Ki was 2.5 nM.

**Q.** `CC(C)C[C@H](NC(=O)[C@@H](NC(=O)C[C@H](O)[C@H](Cc1ccccc1)NC(=O)[C@H](CC(=O)O)NC(=O)[C@@H](NC(=O)CC(C)(C)C)C(C)C)C(C)C)C(=O)NCC(N)=O` [(10), Tha--Val--Asp--Pst--Val--Leu--Gly--NH2] ({Butanoyl(3,3-Me2)}-VD[Ahppa(3S,4S)]VLG-NH2) was tested. Which Ki did it give?
**A.** Its Ki is 2.1 nM.

**Q.** `CC(C)[C@@H]1NC(=O)C[C@H](O)[C@H](Cc2ccccc2)NC(=O)[C@@H](NC(=O)[C@@H](NC(=O)CC(C)(C)C)C(C)C)CCCCNC(=O)CC[C@@H](C(=O)NCC(N)=O)NC1=O` ({Butanoyl(3,3-Me2)}-VK[Ahppa(3S,4S)]VEG-NH2; lactam 2-5) was tested. Which Ki did it give?
**A.** Its Ki is 1.4 nM.

**Q.** For `CC(C)[C@@H]1NC(=O)C[C@H](O)[C@H](Cc2ccccc2)NC(=O)[C@@H](NC(=O)[C@@H](NC(=O)CC(C)(C)C)C(C)C)CSSC[C@@H](C(=O)NCC(N)=O)NC1=O` ({Butanoyl(3,3-Me2)}-VC[Ahppa(3S,4S)]VCG-NH2; disulfide 2-5), which Ki is on record?
**A.** Its Ki is 150 nM.

**Q.** With `CC(C)C[C@H](NC(=O)[C@H](C)NC(=O)C[C@H](O)[C@H](Cc1ccccc1)NC(=O)[C@@H](NC(=O)Cc1ccccn1)C(C)C)C(N)=O` as the compound, how does the Ki read?
**A.** The Ki was 20 nM.

Same assay, conditions: target named only in b168/b175 (cathepsin D), elsewhere implied; read-out: Ki

**Q.** `CC(C)C[C@H](NC(=O)[C@H](C)NC(=O)C[C@H](O)[C@H](Cc1ccccc1)NC(=O)[C@@H](NC(=O)c1ccccn1)C(C)C)C(N)=O` [drawing 15] was tested. Which Ki did it give?
**A.** The Ki was 21 nM.

Target: plasmepsin II (PMII) (Plasmodium falciparum, UniProt P46925)
Assay: biochemical
Settings: not given
Method: as §1, §2
For inhibition studies inhibitors were prepared as stock solutions at different concentrations in DMSO. In a typical experiment 485 μl of the appropriate buffer was mixed with 5 μl of inhibitor stock solution and 5 μ of titrated protease (final concentration 0.2-10 nM) and preincubated 3 min at 37° C. The reaction was initiated by the addition of 5 μl of substrate stock solution in DMSO. […]

Chain of plasmepsin II (PMII) (P46925 125-453): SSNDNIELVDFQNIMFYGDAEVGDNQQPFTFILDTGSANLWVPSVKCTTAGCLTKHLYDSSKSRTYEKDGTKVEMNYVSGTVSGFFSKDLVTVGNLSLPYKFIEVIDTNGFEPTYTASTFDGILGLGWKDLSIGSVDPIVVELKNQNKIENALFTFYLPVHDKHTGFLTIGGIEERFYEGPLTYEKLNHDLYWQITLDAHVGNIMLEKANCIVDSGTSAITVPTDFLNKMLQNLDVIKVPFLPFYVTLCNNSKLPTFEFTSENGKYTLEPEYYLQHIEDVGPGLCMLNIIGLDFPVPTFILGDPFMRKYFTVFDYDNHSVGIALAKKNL

**Q.** For `CC(C)C[C@H](NC(=O)[C@@H](NC(=O)C[C@H](O)[C@@H]1CCCCNC(=O)CC[C@H](NC(=O)CC(C)(C)C)C(=O)N[C@@H](C(C)C)C(=O)N1)C(C)C)C(=O)NCC(N)=O` [drawing 40], which Ki is on record?
**A.** Its Ki is 0.2 nM.

**Q.** With `CC(C)C[C@H](NC(=O)[C@H](C)NC(=O)C[C@H](O)[C@H](Cc1ccccc1)NC(=O)[C@@H](NC(=O)c1ccccn1)C(C)C)C(N)=O` [drawing 42] as the compound, how does the Ki read?
**A.** The Ki was 0.9 nM.

Target: plasmepsin I (PMI) (Plasmodium falciparum, UniProt P39898)
Assay: biochemical
Settings: not given

Chain of plasmepsin I (PMI) (P39898 124-452): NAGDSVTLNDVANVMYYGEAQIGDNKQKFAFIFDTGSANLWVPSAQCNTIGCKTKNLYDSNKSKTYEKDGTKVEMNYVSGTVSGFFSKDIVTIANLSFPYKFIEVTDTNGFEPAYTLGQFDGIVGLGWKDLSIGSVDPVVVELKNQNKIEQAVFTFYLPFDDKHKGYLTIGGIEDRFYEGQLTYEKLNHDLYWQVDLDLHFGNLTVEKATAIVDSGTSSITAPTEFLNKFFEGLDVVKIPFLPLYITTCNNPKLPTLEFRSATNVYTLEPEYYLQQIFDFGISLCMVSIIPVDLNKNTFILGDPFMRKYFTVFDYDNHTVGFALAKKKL

**Q.** `CC(C)C[C@H](NC(=O)[C@@H](NC(=O)C[C@H](O)[C@@H]1CCCCNC(=O)CC[C@H](NC(=O)CC(C)(C)C)C(=O)N[C@@H](C(C)C)C(=O)N1)C(C)C)C(=O)NCC(N)=O` [drawing 40] was tested. Which Ki did it give?
**A.** The Ki was 22 nM.

**Q.** Which Ki does the source give for `CC(C)C[C@H](NC(=O)[C@H](C)NC(=O)C[C@H](O)[C@H](Cc1ccccc1)NC(=O)[C@@H](NC(=O)c1ccccn1)C(C)C)C(N)=O` [drawing 42] here?
**A.** The Ki was 16 nM.
